Reference: US20240335439A1, “USE OF AND METHOD FOR TELAPREVIR IN PREPARATION OF DRUG FOR TREATING AN ISCHEMIA/REPERFUSION INJURY AND CYTOPROTECTIVE DRUG” (THE THIRD XIANGYA HOSPITAL OF CENTRAL SOUTH UNIVERSITY, priority 2021, published 2024)

System: SH-SY5Y nerve cells
Assay: Hypoxia/reoxygenation injury of SH-SY5Y nerve cells, MTS viability and LDH release
Format: cell-based
Conditions: hypoxia 8 h / reoxygenation 24 h, telaprevir 1, 5, 10 μM, vs Hypoxia
Description: The measurement followed the operating instructions of a commercially available lactate dehydrogenase kit (Shanghai Beyotime Biotechnology Co., Ltd., China). Groups were designed according to experimental requirements, and a background blank control group (without cells) and a maximum enzyme release group were additionally set. An LDH release reagent in a volume of 1/10 of the original medium was added to the maximum enzyme activity well group of the sample, and the culture continued for 1 hour. 120 μL of supernatant was pipetted from each well and added to a new 96-well plate, and 60 μL of LDH detection working solution was added to each well, followed by uniform mixing and incubation at room temperature for 30 minutes (in dark). The absorbance of the sample was measured at 490 nm. Calculation: LDH release rate of cells (%)=(absorbance of the drug treatment group-absorbance of the control group)/(absorbance of the maximum enzyme release group-absorbance of the control group)×100%. When the absorbance value of each group was calculated, the absorbance value of the background blank control group was first subtracted.
SH-SY5Y nerve cells were purchased from the Xiangya Cell Bank of Central South University. […]
Cell viability was detected by MTS and cell injury was detected by an LDH release rate. […]

## CCC[C@H](NC(=O)[C@@H]1[C@H]2CCC[C@H]2CN1C(=O)[C@@H](NC(=O)[C@@H](NC(=O)c1cnccn1)C1CCCCC1)C(C)(C)C)C(=O)C(=O)NC1CC1 [telaprevir]
FIG. 5A
  cell viability (MTS) of hypoxia/reoxygenation treated SH-SY5Y cells: significantly inhibit a decrease
FIG. 5B
  LDH release rate of hypoxia/reoxygenation treated SH-SY5Y cells: significantly inhibit
